Assay results from ChEMBL document CHEMBL5050862, “Compounds for inhibiting ly6k and methods of using same” (2021).
One block for each molecule: values may come before it. Calls of active or inactive are those of the source. No cut-off for these calls is given here.

Columns and labels:
4T1 [1] = experiment: Antitumor activity against mouse 4T1 cells allografted in syngenetic BALB/c mouse assessed as tumor growth inhibition at 5 mg/kg, IT(Intratumoral) measured at day 11; format: functional, organism-based; conditions: time 11.0 day
MDA-MB-231 [2] = experiment: Antiproliferative activity against human MDA-MB-231 cells at 100 uM assessed as induction of cells death and measured after 24 hrs by Cell Titer Blue assay relative to control; format: functional, cell-based
MDA-MB-231 [3] = experiment: Antiproliferative activity against human MDA-MB-231 cells transfected with LY6K-ShRNA2 at 100 uM assessed as induction of cells death and measured after 24 hrs by Cell Titer Blue assay relative to control; format: functional, cell-based
MDA-MB-231 [4] = experiment: Down-regulation of PD-L1 expression in human MDA-MB-231 cells at 2 uM measured after 30 mins by Western blot analysis; format: functional, cell-based
[5] = target: Mothers against decapentaplegic homolog 2/homolog 3 (Homo sapiens) (UniProt P84022+Q15796); experiment: Inhibition of TGF-beta1-induced Smad2/3 phopshorylation in human MDA-MB-231 cells at 2 uM measured after 30 mins by Western blot analysis; format: cell-based
Mothers against decapentaplegic homolog 2/homolog 3 (Homo sapiens), sequence (P84022 whole entry, looked up): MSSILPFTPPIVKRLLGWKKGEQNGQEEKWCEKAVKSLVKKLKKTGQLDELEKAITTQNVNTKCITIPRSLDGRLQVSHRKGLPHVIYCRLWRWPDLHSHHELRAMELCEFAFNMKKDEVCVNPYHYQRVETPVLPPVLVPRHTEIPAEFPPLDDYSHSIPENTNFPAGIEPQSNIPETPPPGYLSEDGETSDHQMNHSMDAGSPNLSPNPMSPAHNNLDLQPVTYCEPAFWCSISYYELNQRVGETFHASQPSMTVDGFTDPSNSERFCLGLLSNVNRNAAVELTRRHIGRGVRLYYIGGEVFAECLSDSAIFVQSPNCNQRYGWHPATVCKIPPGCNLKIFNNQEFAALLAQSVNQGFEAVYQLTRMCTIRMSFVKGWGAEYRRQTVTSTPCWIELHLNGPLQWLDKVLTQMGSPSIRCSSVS
Mothers against decapentaplegic homolog 2/homolog 3 (Homo sapiens), sequence (Q15796 whole entry, looked up): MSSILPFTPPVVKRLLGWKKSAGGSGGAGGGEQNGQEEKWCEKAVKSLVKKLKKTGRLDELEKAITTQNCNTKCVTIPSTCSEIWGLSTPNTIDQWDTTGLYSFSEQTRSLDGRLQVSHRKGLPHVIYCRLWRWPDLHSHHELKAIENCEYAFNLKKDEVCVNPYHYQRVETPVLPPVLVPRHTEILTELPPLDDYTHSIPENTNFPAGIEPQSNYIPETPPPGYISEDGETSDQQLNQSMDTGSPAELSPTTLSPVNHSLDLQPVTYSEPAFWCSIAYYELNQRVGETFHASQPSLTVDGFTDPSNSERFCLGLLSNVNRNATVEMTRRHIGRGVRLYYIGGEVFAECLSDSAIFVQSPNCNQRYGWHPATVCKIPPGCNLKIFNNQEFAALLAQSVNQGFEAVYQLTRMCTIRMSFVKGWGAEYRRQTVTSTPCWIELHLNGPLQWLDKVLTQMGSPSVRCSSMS

[6] = target: T1, Signal transducer and activator of transcription 1-alpha/beta (Homo sapiens) (UniProt P42224); experiment: Inhibition of IFN-gamma-induced Stat1 phopshorylation in human MDA-MB-231 cells at 2 uM measured after 30 mins by Western blot analysis; format: cell-based
T1 sequence (whole entry): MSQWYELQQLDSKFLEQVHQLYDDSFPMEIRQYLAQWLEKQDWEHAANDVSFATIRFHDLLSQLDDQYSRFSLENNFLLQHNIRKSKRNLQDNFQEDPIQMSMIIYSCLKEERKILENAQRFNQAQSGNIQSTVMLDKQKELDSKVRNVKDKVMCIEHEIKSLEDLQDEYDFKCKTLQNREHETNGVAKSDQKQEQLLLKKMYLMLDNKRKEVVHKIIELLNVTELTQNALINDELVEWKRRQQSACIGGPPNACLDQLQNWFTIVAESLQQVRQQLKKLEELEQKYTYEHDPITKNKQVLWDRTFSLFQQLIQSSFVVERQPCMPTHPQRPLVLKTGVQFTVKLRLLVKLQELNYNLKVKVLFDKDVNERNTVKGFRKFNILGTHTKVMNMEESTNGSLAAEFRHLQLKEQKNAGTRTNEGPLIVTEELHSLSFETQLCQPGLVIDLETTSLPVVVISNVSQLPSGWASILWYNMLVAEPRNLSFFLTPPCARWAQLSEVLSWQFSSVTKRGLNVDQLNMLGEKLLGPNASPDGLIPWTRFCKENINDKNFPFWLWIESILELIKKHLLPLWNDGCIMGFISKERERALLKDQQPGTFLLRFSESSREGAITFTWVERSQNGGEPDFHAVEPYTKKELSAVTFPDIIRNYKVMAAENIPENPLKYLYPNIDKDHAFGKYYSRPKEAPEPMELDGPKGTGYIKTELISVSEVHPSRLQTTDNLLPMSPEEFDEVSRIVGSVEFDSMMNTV

MDA-MB-231 [7] = experiment: Antiproliferative activity against human MDA-MB-231 cells at 2 uM assessed as induction of cells death and measured after 24 hrs by Cell Titer Blue assay relative to control; format: functional, cell-based
MDA-MB-231 [8] = experiment: Antiproliferative activity against human MDA-MB-231 cells transfected with LY6K-ShRNA2 at 2 uM assessed as induction of cells death and measured after 24 hrs by Cell Titer Blue assay relative to control; format: functional, cell-based
MDA-MB-231 [9] = experiment: Antiproliferative activity against human MDA-MB-231 cells after 24 hrs by Cell Titer Blue assay; format: functional, cell-based; conditions: MDA-MB-231, 24 h
Hs-578T = experiment: Antiproliferative activity against human Hs-578T cells after 24 hrs by Cell Titer Blue assay; format: functional, cell-based
BT-549 = experiment: Antiproliferative activity against human BT-549 cells after 24 hrs by Cell Titer Blue assay; format: functional, cell-based; conditions: BT-549, 24 h
OVCAR-8 = experiment: Antiproliferative activity against human OVCAR-8 cells after 24 hrs by Cell Titer Blue assay; format: functional, cell-based; conditions: OVCAR-8, 24 h
4T1 [10] = experiment: Antitumor activity against mouse 4T1 cells allografted in syngenetic BALB/c mouse assessed as tumor growth inhibition at 5 mg/kg, IT(Intratumoral) measured at day 3; format: functional, organism-based; conditions: time 3.0 day
E0771 = experiment: Antitumor immunity in C57BL/6 mouse xenografted with mouse EO771 cells assessed as reduction in tumor growth at 10 mg/kg, ip administered every 3rd day; format: functional, organism-based; conditions: time 3.0 day
4T1 [11] = experiment: Antitumor activity against mouse 4T1 cells xenografted mouse assessed as decrease in Cd11b and Gr-1-dual positive […] in peripheral blood at 50 mg/kg, iv; format: functional, organism-based
4T1 [12] = experiment: Antitumor activity against mouse 4T1 cells xenografted mouse assessed as decrease in myeloid-derived suppressor cells (MDSCs) in peripheral blood at 50 mg/kg, iv; format: functional; set-up: scale not given: the % may be the effect or the level left
4T1 [13] = experiment: Induction of apoptosis in mouse 4T1 cells at 0.1 to 5 uM assessed as increase in PARP cleavage measured after 16 hrs by Western blot analysis; format: functional, cell-based; conditions: dose 0.1-5 µM
4T1 [14] = experiment: Induction of apoptosis in mouse 4T1 cells at 0.1 to 5 uM assessed as activation of caspase-3 measured after 16 hrs by Western blot analysis; format: functional, cell-based; conditions: dose 0.1-5 µM
4T1 [15] = experiment: Induction of apoptosis in mouse 4T1 cells at 0.1 to 5 uM assessed as activation of caspase-7 measured after 16 hrs by Western blot analysis; format: functional, cell-based; conditions: dose 0.1-5 µM
4T1 [16] = experiment: Down regulation of RhoA in mouse 4T1 cells at 0.1 to 5 uM measured after 16 hrs by Western blot analysis; format: functional, cell-based; conditions: dose 0.1-5 µM
4T1 [17] = experiment: Induction of autophagy in mouse 4T1 cells at 0.1 to 5 uM assessed as activation of LC3B measured after 16 hrs by Western blot analysis; format: functional, cell-based; conditions: dose 0.1-5 µM
4T1 [18] = experiment: Effect on total Ly6K levels in mouse 4T1 cells at 0.1 to 5 […] measured by Western blotting analysis; format: functional, cell-based; conditions: dose 0.1-5 mM

- Activity [5]: inactive
- Activity [6]: inactive
SMILES: Oc1ccc(Cc2ccc(Cl)cc2)c(O)c1
- Activity (4T1 [1]): Active
- Activity (MDA-MB-231 [2]): Active
- Activity (MDA-MB-231 [3]): Active
- Activity (MDA-MB-231 [4]): inactive

- IC50 (MDA-MB-231 [9]): 5.68 µM
- IC50 (BT-549): 7.65 µM
- IC50 (OVCAR-8): 4.17 µM
- Activity [5]: Active
- Activity [6]: Active
SMILES: CCS(=O)(=O)Nc1ccc(Nc2c3ccccc3nc3ccccc23)c(OC)c1
- Activity (MDA-MB-231 [7]): Active
- Activity (MDA-MB-231 [8]): inactive
- IC50 (Hs-578T): 7.31 µM
- Activity (4T1 [10]): Active
- Activity (E0771): Active
- Activity (MDA-MB-231 [4]): Active
- Activity (4T1 [11]): Active
- Activity (4T1 [12]): 90%
- Activity (4T1 [13]): Active
- Activity (4T1 [14]): Active
- Activity (4T1 [15]): Active
- Activity (4T1 [16]): Active
- Activity (4T1 [17]): Active
- Activity (4T1 [18]): Active
